Measurements taken from ChEMBL document CHEMBL1201862, “PubChem BioAssay data set” (2004).
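Following 48 hours of exposure in 96-well plates, responses at five concentrations were used to interpolate endpoints linearly. Here, GI50 denotes the concentration required for 50% inhibition of growth.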 The source made the active and inactive calls. Cut-off read from the data, not from the text of the source: active = GI50 up to about 1.1 µM and inactive = higher.

Experiments:
Test in all cases: DTP human tumour cell line panel, 48 h
TK-10 = test system: TK-10
SF-295 = test system: SF-295
HCC 2998 = test system: HCC 2998
T47D = test system: T47D
NCI/ADR-RES = test system: NCI/ADR-RES
HCT-15 = test system: HCT-15
LOX IMVI = test system: LOX IMVI
M19-MEL = test system: M19-MEL
SNB-75 = test system: SNB-75
IGROV-1 = test system: IGROV-1
CAKI-1 = test system: CAKI-1
M14 = test system: M14
BT-549 = test system: BT-549
MDA-MB-435 = test system: MDA-MB-435
UO-31 = test system: UO-31
NCI-H226 = test system: NCI-H226
EKVX = test system: EKVX
K562 = test system: K562
SR = test system: SR
COLO 205 = test system: COLO 205

Row | SMILES | GI50 (TK-10) | GI50 (SF-295) | GI50 (HCC 2998) | GI50 (T47D) | GI50 (NCI/ADR-RES) | GI50 (HCT-15) [nM] | GI50 (LOX IMVI) | GI50 (M19-MEL) | GI50 (SNB-75) | GI50 (IGROV-1) | GI50 (CAKI-1) | GI50 (M14) | GI50 (BT-549) | GI50 (MDA-MB-435) | GI50 (UO-31) | GI50 (NCI-H226) | GI50 (EKVX) | GI50 (K562) | GI50 (SR) | GI50 (COLO 205)
1 | C/C(=N\N=C(/[SeH])N1CC2CCC(CC2)C1)c1ccccn1 | 0.762 µM (active) | 0.0673 µM (active) | 0.243 µM (active) | 0.0556 µM (active) | < 10 nM (active) | 14.7 | 0.0244 µM (active) | 0.0449 µM (active) | 0.0871 µM (active) | 0.0169 µM (active) | 0.293 µM (active) | 0.0255 µM (active) | 0.182 µM (active) | 0.119 µM (active) | 0.217 µM (active) | 0.43 µM (active) | 0.0914 µM (active) | < 10 nM (active) | 22.3 nM (active) | < 0.01 µM (active)
2 | Cc1cc(O)nc(NN2C(Cl)C(=O)C2c2ccccc2O)n1 (stereo not drawn) | 19.4 µM (inactive) | 2.76 µM (inactive) | 2.67 µM (inactive) | 3.99 µM (inactive) | 1540 nM (inactive) | 650 | 1.02 µM (active) | 3.84 µM (inactive) | 2.54 µM (inactive) | 3.75 µM (inactive) | 1.64 µM (inactive) | 3.15 µM (inactive) | – | 5.68 µM (inactive) | 2.06 µM (inactive) | 2.39 µM (inactive) | 3.27 µM (inactive) | 1080 nM (active) | 796 nM (active) | 12.1 µM (inactive)
3 | CN(C)C[C@H]1CC[C@@H](CN(C)C)C1=O | 8.11 µM (inactive) | 48.9 µM (inactive) | > 29.6 µM (inactive) | 7.03 µM (inactive) | – | 4650 | 7.14 µM (inactive) | 8.83 µM (inactive) | 14.5 µM (inactive) | 15.2 µM (inactive) | 8.79 µM (inactive) | 8.77 µM (inactive) | 7.46 µM (inactive) | 9.66 µM (inactive) | 14.9 µM (inactive) | 13.1 µM (inactive) | 16.7 µM (inactive) | 564 nM (active) | 2210 nM (inactive) | 3.67 µM (inactive)
